Patent US20260001875A1, “AMINOPYRIMIDINYL DERIVATIVES FOR THE TREATMENT OF PARKINSON'S DISEASE” (UNIVERSITY OF DUNDEE, priority 2022, published 2026)

Experiments:
[1] = tested on: Rab10 pThr73; experiment: Rab10 Thr73 dephosphorylation (immunoblot) in LRRK2^G2019S MEFs; format: cell-based; conditions: Mus musculus, read-out: pRab10 inhibited in LRRK2^G2019S MEFs
[2] = tested on: Rab10 pThr73; experiment: as above; format: cell-based, mouse; conditions: Mus musculus, 1 μM/4 h treatment; read-out: pRab10 inhibited in LRRK2^G2019S MEFs
[3] = tested on: Rab10 pThr73; experiment: Rab10 Thr73 dephosphorylation (immunoblot) in WT MEFs; format: cell-based, mouse; conditions: Mus musculus, read-out: pRab10 inhibited in WT MEFs
Method in brief: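 Wild-type mouse embryonic fibroblasts in 6-well plates were treated with LRRK2 PROTACs, with two biological replicates per condition. Cells were washed in PBS and lysed on ice in buffer containing phosphatase and protease inhibitors plus 1% Triton X-100, then clarified at 15,000 g. Rab10 Thr73 phosphorylation was measured by quantitative immunoblotting of 15 to 20 μg protein on 4-12% Bis-Tris gels.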

[4] = tested on: LRRK2^WT; experiment: Western blot LRRK2 degradation in WT MEFs; format: cell-based, mouse; conditions: WT MEFs and LRRK2^G2019S MEFs

CNc1nc(Nc2ccc(C(=O)N3CCN(Cc4ccc(CSC(C)(C)[C@H](NC(=O)C5(F)CC5)C(=O)N5C[C@H](O)C[C@H]5C(=O)NCc5ccc(-c6scnc6C)cc5)cc4)CC3)cc2OC)ncc1Cl [SD100, (2S,4R)-1-((R)-3-((4-((4-(4-((5-chloro-4-(methylamino)pyrimidin-2-yl)amino)-3-methoxybenzoyl)piperazin-1-yl)methyl)benzyl)thio)-2-(1-fluorocyclopropane-1-carboxamido)-3-methylbutanoyl)-4-hydroxy-N-(4-(4-methylthiazol-5-yl)benzyl)pyrrolidine-2-carboxamide]
inhibition at 0.033 µM ([1]; 33 nM/4 h treatment): 0 to 60% | inhibition at 0.033 µM ([1]; 33 nM/24 h treatment): 0 to 70% | inhibition at 1 µM [2]: 30 to 95% | inhibition at 0.033 µM ([3]; 33 nM/4 h treatment): 0 to 25% | inhibition at 1 µM ([3]; 1 μM/4 h treatment): 18 to 90% | inhibition at 1 µM ([3]; 1 μM/24 h treatment): 30 to 90% | LRRK2 degradation (in words) [4]: moderate LRRK2 degradation
